{"source": "patent US20250205304A1", "about": "“CD300LD INHIBITOR AND USE THEREOF IN THE PREPARATION OF TUMOR IMMUNOTHERAPY PRODUCTS” (FUDAN UNIVERSITY, priority 2021, published 2025)", "molecules": {"B1": {"name": "S100A8/A9 proteins: S100A8/A9 proteins added in the in vitro migration assay (protein, UniProt P05109 1-93; P06702 1-114, looked up)", "Protein S100-A8": "MLTELEKALNSIIDVYHKYSLIKGNFHAVYRDDLKKLLETECPQYIRKKGADVWFKELDINTDGAVNFQEFLILVIKMGVAAHKKSHEESHKE", "Protein S100-A9": "MTCKMSQLERNIETIINTFHQYSVKLGHPDTLNQGEFKELVRKDLQNFLKKENKNEKVIEHIMEDLDTNADKQLSFEEFIMLMARLTWASHEKMHEGDEGPGHHHKPGLGEGTP"}}, "key": {"PMN-MDSC [1]": {"test_system": "PMN-MDSC", "experiment": "T cell proliferation inhibition assay of PMN-MDSC", "assay_type": "cell-based, mice", "description": "6-4) T cell proliferation assay: spleens of OT-1 mice were isolated, single-cell suspensions in PBS (5×10^7 cells/ml) were prepared, and CTV dye with a final concentration of […] was added to obtain a mixture. The mixture was incubated in a 37° C. water bath for 20 minutes, added with 5 times the volume of ice pre-cooled RPMI medium (RPMI-1640+10% FBS), mixed by inversion, stood at room temperature for 5 minutes, centrifuged for 5 minutes at 400 g, and then resuspended in RPMI medium (1×10^6 cells/ml). 80 μl of CTV-labeled cells was added with 40 μl of OVA peptide at a concentration of 100 ng/ml, and then supplemented with 80 μl of RPMI medium. The solution was added to the wells of a 96-well U bottom plate and incubated at 37° C. in a carbon dioxide incubator, and then antibody labeling and flow assay were carried out 48-72 hr later.\n6-5) T cell proliferation inhibition assay of PMN-MDSC: spleens of B16 tumor-bearing mice were isolated, single-cell suspensions were prepared and labeled with antibodies, and PMN-MDSC cells (CD45^+/CD11b^+/Lying6G^+) were sorted by flow cytometry and resuspended in RPMI medium (1×10^6 cells/ml). 80 μl of CTV-labeled cells in […]) was added with 40 μl of OVA peptide at a concentration of 100 ng/ml, PMN-MDSC cells, and culture medium. […]"}, "B16 tumor": {"test_system": "B16 tumor", "experiment": "B16 tumor model with intraperitoneal Tasquinimod", "assay_type": "in vivo, mice", "settings": "for tumor growth: 20 μg/mouse intraperitoneally", "description": "7-2) Tumor model: B16 cells (1.5×10^5 cells/mouse) were inoculated into mice subcutaneously, and 20 μg of Tasquinimod/mouse was injected intraperitoneally on day 2. Tumor size was measured every 2-3 days, and tumor growth curves were plotted. Tumors were isolated from mice on day 19, and the percentage of immune cells was determined by flow analysis."}, "PMN-MDSC [2]": {"test_system": "PMN-MDSC", "experiment": "PMN-MDSC in vitro cell migration assay (Transwell)", "assay_type": "cell-based, mice", "settings": "KO PMN-MDSCs, 2 hr", "description": "6-2) PMN-MDSC in vitro cell migration assay (Transwell): single-cell suspensions were prepared from isolated spleens of tumor-bearing mice and labeled with antibodies, and PMN-MDSC cells (CD45+/CD11b+/Ly6G+) were sorted. 10^5 PMN-MDSC cells were added to the upper layer of Transwell and then placed in a 37° C. incubator for 2 hr, and then the number of PMN-MDSC cells in the lower layer was analyzed by flow assay to calculate the migration ratio of the cells.\n7-1) PMN-MDSC in vitro cell migration assay (Transwell): spleens of B16 tumor-bearing mice were isolated, single-cell suspensions were prepared and labeled with antibodies, and PMN-MDSC cells (CD45+/CD11b+/Lying6G+) were sorted by flow cytometry. 10^5 PMN-MDSC cells were added to the upper layer of Transwell and then placed in a 37° C. incubator, and then S100A8/A9 inhibitor (Tasquinimod) or DMSO control with a final concentration of 1 μg/ml was added, the number of PMN-MDSC cells in the lower layer was analyzed by flow-assay after 2 hr, and the percentage of cell migration was calculated."}}, "data": [{"molecule": "COc1cccc2c1c(O)c(C(=O)N(C)c1ccc(C(F)(F)F)cc1)c(=O)n2C", "note": "[Tasquinimod]", "values": [{"measurement": "inhibitory effect of PMN-MDSCs on T cell proliferation", "setting": "PMN-MDSC [1]; KO PMN-MDSCs", "value": "little effect"}, {"measurement": "inhibitory effect of PMN-MDSCs on T cell proliferation", "setting": "PMN-MDSC [1]; WT PMN-MDSCs", "value": "significantly reduced the inhibitory effect"}, {"measurement": "tumor growth", "setting": "B16 tumor; CD300LD KO mice", "value": "barely inhibited tumor growth"}, {"measurement": "tumor growth", "setting": "B16 tumor; WT mice", "value": "inhibited tumor growth"}, {"measurement": "proportion of intratumoral PMN-MDSCs", "setting": "B16 tumor; tumors isolated on day 19, WT and KO mice", "value": "consistent with the changes of tumors"}]}, {"molecule": "B1", "values": [{"measurement": "in vitro migration ability of PMN-MDSC", "setting": "PMN-MDSC [2]", "value": "enhance the weakened migration ability"}]}]}
